In ChEMBL document CHEMBL1201862, “PubChem BioAssay data set” (2004):
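Exposure lasted 48 hours, with cells grown in 96-well plates and compounds tested at five concentrations. GI50 marks 50% less growth.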 The source made the active and inactive calls. Cut-off read from the data, not from the text of the source: active = GI50 up to about 1.1 µM and inactive = higher.

Experiments:
Experiment in all cases: growth of human tumour cells (NCI), 48 h
[1] = tested on: EKVX
[2] = tested on: MOLT-4
[3] = tested on: UACC-62
[4] = tested on: NCI-H226
[5] = tested on: SK-MEL-5
[6] = tested on: A549
[7] = tested on: BT-549
[8] = tested on: IGROV-1
[9] = tested on: MCF7
[10] = tested on: MDA-MB-231
[11] = tested on: A498
[12] = tested on: LOX IMVI
[13] = tested on: SF-539
[14] = tested on: SK-OV-3
[15] = tested on: MDA-MB-435
[16] = tested on: OVCAR-3
[17] = tested on: M14
[18] = tested on: K562
[19] = tested on: T47D
[20] = tested on: SNB-19

Measured: GI50

COc1ccccc1NC(=O)C(=O)C(C#N)CC(C)(C)C=O (stereo unspecified)
inactive: [1] > 100 µM | [2] > 100 µM | [3] > 100 µM | [4] > 100 µM | [5] > 100 µM | [6] > 100 µM | [7] > 100 µM | [8] > 100 µM | [9] > 100 µM | [10] > 100 µM | [11] > 100 µM | [12] > 100 µM | [13] > 100 µM | [14] > 100 µM | [15] > 100 µM | [16] > 100 µM | [17] > 100 µM | [18] > 100 µM | [19] > 100 µM

C1CSCCCSCCSCCCSC1
inactive: [20] > 100 µM | [1] > 100 µM | [2] > 100 µM | [3] > 100 µM | [4] > 100 µM | [5] > 100 µM | [6] > 100 µM | [7] > 100 µM | [8] > 100 µM | [9] > 100 µM | [10] > 100 µM | [11] > 100 µM | [12] > 100 µM | [13] > 100 µM | [14] > 100 µM | [15] > 100 µM | [17] > 100 µM | [18] > 100 µM | [19] > 100 µM

CCOC(=O)Nc1c(C#N)[n+]([O-])c2cc(Cl)c(Cl)cc2[n+]1[O-]
inactive: [20] 21.7 µM | [2] 8.71 µM | [3] 10.7 µM | [4] 15.7 µM | [5] 10.5 µM | [6] 22 µM | [7] 15.6 µM | [8] 13.1 µM | [9] 16.7 µM | [10] 15.9 µM | [11] 7.69 µM | [12] 6.1 µM | [13] 12.9 µM | [14] 24.2 µM | [15] 16.4 µM | [16] 20.1 µM | [17] 16.9 µM | [18] 16.3 µM | [19] 13.5 µM

O=[N+]([O-])c1cc2c(cc1/C=N/n1c(CO)nc3ccccc31)OCO2
inactive: [20] > 100 µM | [1] > 100 µM | [2] > 100 µM | [3] > 100 µM | [4] > 100 µM | [5] > 100 µM | [6] > 100 µM | [7] > 100 µM | [9] > 100 µM | [10] > 100 µM | [11] > 100 µM | [12] > 100 µM | [13] > 100 µM | [14] > 100 µM | [15] > 100 µM | [16] > 100 µM | [17] > 100 µM | [18] > 100 µM | [19] > 100 µM

CC(=O)N1CC(=O)N2C(=O)/C(=C/c3ccc(Cl)cc3)N=C12
inactive: [20] > 100 µM | [1] > 100 µM | [2] 48.3 µM | [3] > 100 µM | [4] > 100 µM | [5] > 100 µM | [6] > 100 µM | [7] > 100 µM | [9] 97.9 µM | [10] > 100 µM | [11] > 100 µM | [12] > 100 µM | [13] > 100 µM | [14] > 100 µM | [15] > 100 µM | [16] > 100 µM | [17] > 100 µM | [18] 49.1 µM | [19] 53.1 µM

Nc1[nH]c(=O)[nH]c(=O)c1Cc1cccc(Cl)c1
inactive: [20] > 100 µM | [1] > 100 µM | [3] 34.4 µM | [4] > 100 µM | [6] > 100 µM | [7] 75.2 µM | [8] 56.9 µM | [9] 17.9 µM | [10] > 100 µM | [11] > 100 µM | [12] 54.7 µM | [13] > 100 µM | [14] > 100 µM | [15] 44 µM | [16] > 100 µM | [17] 84.9 µM | [18] 63.5 µM | [19] 39 µM

O=C(NCCO)Nc1c(C(F)(F)F)cc(-c2ccccc2)[nH]c1=O
inactive: [20] > 100 µM | [1] > 100 µM | [2] > 100 µM | [3] > 100 µM | [4] > 100 µM | [5] > 100 µM | [6] > 100 µM | [7] > 100 µM | [8] > 100 µM | [9] > 100 µM | [10] > 100 µM | [11] > 100 µM | [12] > 100 µM | [14] > 100 µM | [15] > 100 µM | [16] > 100 µM | [17] > 100 µM | [18] > 100 µM | [19] > 100 µM

O=C(Nc1ccccc1)c1cc2cc(CCl)ccc2oc1=O
inactive: [20] 80.4 µM | [1] > 100 µM | [2] > 100 µM | [3] 16.6 µM | [4] > 100 µM | [5] > 100 µM | [6] 99.3 µM | [7] > 100 µM | [8] > 100 µM | [9] 26.4 µM | [10] 64.1 µM | [11] 13 µM | [12] > 100 µM | [14] > 100 µM | [15] > 100 µM | [16] > 100 µM | [17] > 100 µM | [18] 62.2 µM | [19] > 100 µM
